Source: patent US9932340B2, “Substituted indoles” (AbbVie Inc., priority 2014, dated 2018)

The compounds below were run against SUV420H1 enzyme (Homo sapiens, UniProt Q4FZB7) (assay: TR-FRET SAH SUV420H1 enzyme inhibition assay). Details: Histone Peptide H4(8-30)me1 and SAM, overnight at room temp, TR-FRET detection of SAH, read-out: TR-FRET SAH_SUV420H1 IC50.
Format: biochemical
Procedure: Test compounds were dispensed by a Labcyte Echo in 384-well low volume assay plates with 3-fold serial dilutions from 50 μM to 0.00075 μM. 5 μL of SUV420H1 enzyme (Abbvie) at 90 nM was added to all wells except the no enzyme control wells, and incubated for 30 minutes at room temp before 5 μL of Histone Peptide H4(8-30)me1 (Anaspec) at 5 nM and SAM at 4 nM was added to all wells. The plates were incubated in a humidified chamber overnight at room temp and then 10 μL of the detection reagent that contained RIPA buffer (50 mM Tris-HCl, pH 8.0, 150 mM sodium chloride, 1.0% Igepal CA-630 (NP-40), 0.5% sodium deoxycholate and 0.1% sodium dodecyl sulfate) (Sigma) with 2 nM of Terbium chelate anti S-adenosyl-L-homocysteine (SAH) (Abbvie) antibody and Oregon Green labeled SAH at 4 nM was added. The plates were further incubated for 4 hours at room temperature. The plates were read in a Perkin Elmer Envision using a TR-FRET protocol with Excitation set at 335 nm and Emission at 520 and 495 nm. To generate dose response curves the data is normalized to percent inhibition by setting the average of the plus and minus enzyme control wells to 0% and 100% inhibition respectively. The IC50 values for the compounds are generated by fitting the normalized data with Accelrys Assay Explorer 3.3 to a sigmoidal curve model using […] regression, Y=(100*x^n)/(K^n+x^n), where Y is the measured response, x is the compound concentration, n is the Hill Slope and K is the IC50 and the lower and higher asymptotes are constrained to 0 and 100 respectively.

SUV420H1 enzyme, sequence (Q4FZB7 whole entry): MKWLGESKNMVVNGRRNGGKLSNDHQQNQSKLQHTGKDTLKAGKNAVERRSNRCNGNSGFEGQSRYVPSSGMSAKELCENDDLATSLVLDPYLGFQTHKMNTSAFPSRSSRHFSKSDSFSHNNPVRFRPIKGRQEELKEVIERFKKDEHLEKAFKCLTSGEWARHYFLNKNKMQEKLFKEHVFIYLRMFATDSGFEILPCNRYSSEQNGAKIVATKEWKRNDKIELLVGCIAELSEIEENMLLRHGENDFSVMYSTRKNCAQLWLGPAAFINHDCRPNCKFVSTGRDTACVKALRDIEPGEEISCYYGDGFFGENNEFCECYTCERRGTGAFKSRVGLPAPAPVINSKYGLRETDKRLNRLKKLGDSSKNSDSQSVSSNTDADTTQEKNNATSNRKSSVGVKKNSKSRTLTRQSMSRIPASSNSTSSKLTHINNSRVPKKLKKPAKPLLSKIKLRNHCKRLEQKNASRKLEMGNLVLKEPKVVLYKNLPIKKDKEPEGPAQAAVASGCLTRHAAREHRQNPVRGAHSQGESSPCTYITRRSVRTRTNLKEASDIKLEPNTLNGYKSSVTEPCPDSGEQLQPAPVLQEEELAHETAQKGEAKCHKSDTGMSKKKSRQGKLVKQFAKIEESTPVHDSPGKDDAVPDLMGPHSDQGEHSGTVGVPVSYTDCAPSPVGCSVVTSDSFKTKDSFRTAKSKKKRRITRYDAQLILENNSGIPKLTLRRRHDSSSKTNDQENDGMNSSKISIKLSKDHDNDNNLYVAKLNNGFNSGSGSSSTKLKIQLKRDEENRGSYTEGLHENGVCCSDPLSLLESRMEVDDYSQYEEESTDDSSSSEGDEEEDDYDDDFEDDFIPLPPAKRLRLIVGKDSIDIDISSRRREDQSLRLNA

Row | Compound | IC50 [nM]
1 | COc1ccccc1CNCc1cc2cc(Cl)cc(Cn3cnc4c(N)ncnc43)c2[nH]1 [Example 250, 9-[(5-chloro-2-{[(2-methoxybenzyl)amino]methyl}-1H-indol-7-yl)methyl]-9H-purin-6-amine] | 4440
2 | N#CCc1ccc(-c2cc(Cn3cnc4c(N)ncnc43)c3[nH]c(CN)cc3c2)cc1 [Example 45, (4-{2-(aminomethyl)-7-[(6-amino-9H-purin-9-yl)methyl]-1H-indol-5-yl}phenyl)acetonitrile] | 356
3 | CC(C)(C)OC(=O)N1CCC[C@H]1C(=O)NCc1cc2cc(Cl)cc(Cn3cnc4c(N)ncnc43)c2[nH]1 [Example 123, tert-butyl (2S)-2-[({7-[(6-amino-9H-purin-9-yl)methyl]-5-chloro-1H-indol-2-yl}methyl)carbamoyl]pyrrolidine-1-carboxylate] | 44900
4 | Nc1ncnc2c1ncn2Cc1cc(Cl)cc2cc(CNC(=O)c3cccc(O)n3)[nH]c12 [Example 197, N-({7-[(6-amino-9H-purin-9-yl)methyl]-5-chloro-1H-indol-2-yl}methyl)-6-hydroxypyridine-2-carboxamide] | 1070
5 | CC(C)c1ccc(Cn2cnc3c(N)ncnc32)c2[nH]c(CN)cc12 [Example 66, 9-{[2-(aminomethyl)-4-(propan-2-yl)-1H-indol-7-yl]methyl}-9H-purin-6-amine] | 4290
6 | Cn1ccc(C(=O)NCc2cc3cc(Cl)cc(Cn4cnc5c(N)ncnc54)c3[nH]2)n1 [Example 151, N-({7-[(6-amino-9H-purin-9-yl)methyl]-5-chloro-1H-indol-2-yl}methyl)-1-methyl-1H-pyrazole-3-carboxamide] | 6750
7 | Cc1ccccc1-c1ccc(Cn2cnc3c(N)ncnc32)c2[nH]c(CN)cc12 [Example 77, 9-{[2-(aminomethyl)-4-(2-methylphenyl)-1H-indol-7-yl]methyl}-9H-purin-6-amine] | 2630
8 | COc1ccccc1CNC(=O)NCc1cc2cc(Cl)cc(Cn3cnc4c(N)ncnc43)c2[nH]1 [Example 312, 1-({7-[(6-amino-9H-purin-9-yl)methyl]-5-chloro-1H-indol-2-yl}methyl)-3-(2-methoxybenzyl)urea] | > 50000
9 | NCc1cc2cc(-c3cccc(C(=O)N4CCOCC4)c3)cc(Cn3cnc4c(N)ncnc43)c2[nH]1 [Example 53, (3-{2-(aminomethyl)-7-[(6-amino-9H-purin-9-yl)methyl]-1H-indol-5-yl}phenyl)(morpholin-4-yl)methanone] | 590
10 | 4-{[({7-[(6-amino-9H-purin-9-yl)methyl]-5-chloro-1H-indol-2-yl}methyl)amino]methyl}-N,N-dimethylbenzamide [Example 318] | 3490
11 | CC(C)C(=O)NCc1cc2cc(Cl)cc(Cn3cnc4c(N)ncnc43)c2[nH]1 [Example 99, N-({7-[(6-amino-9H-purin-9-yl)methyl]-5-chloro-1H-indol-2-yl}methyl)-2-methylpropanamide] | 25100
12 | NCc1cc2cc(C3=CCOCC3)cc(Cn3cnc4c(N)ncnc43)c2[nH]1 [Example 12, 9-{[2-(aminomethyl)-5-(3,6-dihydro-2H-pyran-4-yl)-1H-indol-7-yl]methyl}-9H-purin-6-amine] | 334
13 | Cn1cnc2cc(C(=O)NCc3cc4cc(Cl)cc(Cn5cnc6c(N)ncnc65)c4[nH]3)ccc21 [Example 361, N-({7-[(6-amino-9H-purin-9-yl)methyl]-5-chloro-1H-indol-2-yl}methyl)-1-methyl-1H-benzimidazole-5-carboxamide] | 2150
14 | Nc1ncnc2c1ncn2Cc1cc(Cl)cc2cc(CNC(=O)[C@@H]3CCC(=O)N3)[nH]c12 [Example 117, (2S)—N-({7-[(6-amino-9H-purin-9-yl)methyl]-5-chloro-1H-indol-2-yl}methyl)-5-oxopyrrolidine-2-carboxamide] | 14100
15 | Nc1ncnc2c1ncn2Cc1cc(Cl)cc2cc(CNCc3c(F)cccc3Cl)[nH]c12 [Example 215, 9-[(5-chloro-2-{[(2-chloro-6-fluorobenzyl)amino]methyl}-1H-indol-7-yl)methyl]-9H-purin-6-amine] | 3910
16 | CC(C)(C)OC(=O)N1CCC[C@@H]1C(=O)NCc1cc2cc(Cl)cc(Cn3cnc4c(N)ncnc43)c2[nH]1 [Example 124, tert-butyl (2R)-2-[({7-[(6-amino-9H-purin-9-yl)methyl]-5-chloro-1H-indol-2-yl}methyl)carbamoyl]pyrrolidine-1-carboxylate] | 23900
17 | NCc1cc2ccc(Cl)c(Cn3cnc4c(N)ncnc43)c2[nH]1 [Example 58, 9-{[2-(aminomethyl)-6-chloro-1H-indol-7-yl]methyl}-9H-purin-6-amine] | 7880
18 | CC(C)(C)OC(=O)CNCc1cc2cc(Cl)cc(Cn3cnc4c(N)ncnc43)c2[nH]1 [Example 106, tert-butyl [({7-[(6-amino-9H-purin-9-yl)methyl]-5-chloro-1H-indol-2-yl}methyl)amino]acetate] | 3320
19 | CS(=O)(=O)c1ccc(CNCc2cc3cc(Cl)cc(Cn4cnc5c(N)ncnc54)c3[nH]2)cc1F [Example 264, 9-{[5-chloro-2-({[3-fluoro-4-(methylsulfonyl)benzyl]amino}methyl)-1H-indol-7-yl]methyl}-9H-purin-6-amine] | 3230
20 | N#Cc1ccc(CNCc2cc3cc(Cl)cc(Cn4cnc5c(N)ncnc54)c3[nH]2)cc1 [Example 267, 4-{[({7-[(6-amino-9H-purin-9-yl)methyl]-5-chloro-1H-indol-2-yl}methyl)amino]methyl}benzonitrile] | 3430

These reach a lower IC50. Values come first.

Row | IC50 [nM] | Compound
21 | 275 | Nc1ncnc2c1ncn2Cc1cc(Cl)cc2cc(CNC(=O)c3c(F)cccc3Br)[nH]c12 [Example 226, N-({7-[(6-amino-9H-purin-9-yl)methyl]-5-chloro-1H-indol-2-yl}methyl)-2-bromo-6-fluorobenzamide]
22 | 240 | CN1CCN(C(=O)c2ccc(-c3cc(Cn4cnc5c(N)ncnc54)c4[nH]c(CN)cc4c3)cc2)CC1 [Example 56, (4-{2-(aminomethyl)-7-[(6-amino-9H-purin-9-yl)methyl]-1H-indol-5-yl}phenyl)(4-methylpiperazin-1-yl)methanone]
23 | 237 | Cc1noc(C)c1C(=O)NCc1cc2cc(Cl)cc(Cn3cnc4c(N)ncnc43)c2[nH]1 [Example 162, N-({7-[(6-amino-9H-purin-9-yl)methyl]-5-chloro-1H-indol-2-yl}methyl)-3,5-dimethyl-1,2-oxazole-4-carboxamide]
24 | 173 | Cc1noc(C)c1C(=O)NCc1cc2cc(-c3ccc(C#N)cc3)cc(Cn3cnc4c(N)ncnc43)c2[nH]1 [Example 171, N-({7-[(6-amino-9H-purin-9-yl)methyl]-5-(4-cyanophenyl)-1H-indol-2-yl}methyl)-3,5-dimethyl-1,2-oxazole-4-carboxamide]
25 | 164 | N#Cc1ccc(C(=O)NCc2cc3cc(Cl)cc(Cn4cnc5c(N)ncnc54)c3[nH]2)cn1 [Example 240, N-({7-[(6-amino-9H-purin-9-yl)methyl]-5-choro-1H-indol-2-yl}methyl)-6-cyanopyridine-3-carboxamide]
26 | 80.1 | COc1cccc(-c2cc(Cn3cnc4c(N)ncnc43)c3[nH]c(CNC(=O)c4c(C)noc4C)cc3c2)c1 [Example 169, N-({7-[(6-amino-9H-purin-9-yl)methyl]-5-(3-methoxyphenyl)-1H-indol-2-yl}methyl)-3,5-dimethyl-1,2-oxazole-4-carboxamide]
27 | 67.4 | N#Cc1ccc(C(=O)NCc2cc3cc(C4=CCC(F)(F)CC4)cc(Cn4cnc5c(N)ncnc54)c3[nH]2)c(Cl)c1 [Example 278, N-({7-[(6-amino-9H-purin-9-yl)methyl]-5-(4,4-difluorocyclohex-1-en-1-yl)-1H-indol-2-yl}methyl)-2-chloro-4-cyanobenzamide]
28 | 64.1 | Cc1nnccc1C(=O)NCc1cc2cc(C3=CCN(S(C)(=O)=O)CC3)cc(Cn3cnc4c(N)ncnc43)c2[nH]1 [Example 202, N-({7-[(6-amino-9H-purin-9-yl)methyl]-5-[1-(methylsulfonyl)-1,2,3,6-tetrahydropyridin-4-yl]-1H-indol-2-yl}methyl)-3-methylpyridazine-4-carboxamide]
29 | 57.9 | N#Cc1ccc(C(=O)NCc2cc3cc(C4=CCOCC4)cc(Cn4cnc5c(N)ncnc54)c3[nH]2)c(F)c1 [Example 285, N-({7-[(6-amino-9H-purin-9-yl)methyl]-5-(3,6-dihydro-2H-pyran-4-yl)-1H-indol-2-yl}methyl)-4-cyano-2-fluorobenzamide]
30 | 54.7 | Cc1cc(C(=O)NCc2cc3c(Cl)ccc(Cn4cnc5c(N)ncnc54)c3[nH]2)c(C)nn1 [Example 239, N-({7-[(6-amino-9H-purin-9-yl)methyl]-4-chloro-1H-indol-2-yl}methyl)-3,6-dimethylpyridazine-4-carboxamide]
31 | 43.1 | CC(=O)N1CC=C(c2cc(Cn3cnc4c(N)ncnc43)c3[nH]c(CNC(=O)c4ccc(C#N)cc4F)cc3c2)CC1 [Example 288, N-({5-(1-acetyl-1,2,3,6-tetrahydropyridin-4-yl)-7-[(6-amino-9H-purin-9-yl)methyl]-1H-indol-2-yl}methyl)-4-cyano-2-fluorobenzamide]
